{"source": "patent US7897722B2", "about": "“Composition of bone formation with PHSRN-RGD containing oligopeptide” (Seoul National University Industry Foundation, priority 2007, dated 2011)", "key": {"MG63 cells [1]": {"tested_on": "MG63 cells", "experiment": "Cell adhesion assay on coated culture plates", "type": "cell-based, human", "details": "plates coated with 0.1 μM recombinant oligopeptide; control poly-L-lysine-coated plate; P<0.05", "protocol": "(§1) MG63 cells (Korean Cell Line Bank, KCLB), used in the present invention, which is a human osteosarcoma cell line, were cultured in Dulbecco's modified Eagle's medium (DMEM) containing 10% (v/v) fetal bovine serum and 0.1% (w/v) gentamycin at 37° C., in a humidified 5% CO2 incubator.\n24-well plates were coated with 0.1 μM recombinant oligopeptide or poly-L-lysine at a predetermined concentration overnight at 4° C. and blocked with PBS containing 1% (w/v) BSA for 30 min, then rinsed with PBS.\nThe MG63 cells were serum-starved for 24 hours, harvested in 0.02% (w/v) trypsin, 1 mM EDTA, and resuspended in DMEM. After being washed 3 times with DMEM containing 100 μg/Ml soybean trypsin inhibitor and 1% (w/v) BSA, 5×10^4 MG63 cells in DMEM were plated in each well to culture at 37° C. for 30 min or 1 hour. Suspensions of control cells were maintained in BSA-coated plates at a given time. After 30 min, adherent cells were washed twice with PBS, fixed with 3% (w/v) paraformaldehyde, and stained with 0.25% (w/v) Crystal Violet (Sigma, USA) in 2% (v/v) ethanol/water. After washing with distilled water, the plates were allowed to dry. The absorbancy was measured at 570 nm to represent the mean±SD (standard deviation). Non-specific adhesion was determined using 1% BSA as a negative control group. […]"}, "MG63 cells [2]": {"tested_on": "MG63 cells", "experiment": "ALP (alkaline phosphatase) assay, osteoblastic cell differentiation", "type": "cell-based, human", "details": "7 days, control poly-L-lysine-coated", "protocol": "as §1\nIn order to determine osteoblastic cell differentiation, ALP (Alkaline phosphatase) activity that implies in vitro bone formation activity, was measured. 5×10^4 MG63 cells were cultured in 0.1 μM recombinant oligopeptide-coated or poly-L-lysine-coated six-well plates for 7 days. Then, they were washed with PBS and lysed in 1.5 M Tris/HCl (pH 10.2) containing 1 mM ZnCl2, 1 mM MgCl2 and 1% (w/v) Triton X-100 at 4° C. for 10 min. After clarifying the cell lysates by centrifugation, the ALP activity was assayed according to the manufacturer's protocol for the ALP assay kit (Sigma, USA)."}}}
{"substance": "DPHSRN-SITGTNLTPGYTITVYAVTG-RGD (DPHSRNSITGTNLTPGYTITVYAVTGRGD) [F20]", "values": [{"measurement": "cell adhesion capacity (absorbance at 570 nm) compared with control plates", "setting": "MG63 cells [1]", "result": 2, "unit": "fold"}, {"measurement": "ALP activity of MG63 cells compared with control plates", "setting": "MG63 cells [2]; 0.1 μM oligopeptide-coated plates", "result": 2.5, "unit": "fold"}, {"measurement": "ALP activity of MG63 cells compared with control plates", "setting": "MG63 cells [2]; 0.1 μM oligopeptide-coated six-well plates, n=3, P<0.05", "result": 2.5, "unit": "times"}]}
